Measurements as given in US20120258975A1, “Potent Small Molecule Inhibitors of Autophagy, and Methods of Use Thereof” (Shanghai Institute of Organic Chemistry, priority 2009, published 2012).

What was measured:
LC3-GFP (H4-LC3 cells) = assay: LC3-GFP image-based autophagy assay in H4-LC3 cells; type: cell-based; conditions: with rapamycin; MY-5445 30 μM, dipyridamole 80 μM, IBMX 100 μM, sildenafil 10 μM
Procedure: FIG. 1 relates to identification of a small molecule inhibitor of autophagy by an image-based screen. A, structure of MBCQ. B, Quantitative analysis of LC3-GFP spot number per cell (a), spot size per cell (b), spot intensity per cell (c). The data are expressed as % of control vehicle treated cells. H4-LC3 cells were seeded in 96 well-plates and incubated with vehicle control (1% DMSO), 0.2 μM rapamycin with or without 10 μM MBCQ for indicated time, fixed with 4% paraformaldehyde and stained with 4,6-diamidino-2-phenylindole (DAPI, 3 μg/ml). Images of 1000 cells for each compound treatment were analyzed by ArrayScan HCS 4.0 Reader with a 20× objective (Cellomics, Pittsburgh, Pa.).
(§1) FIG. 14 depicts MBCQ derivatives that can inhibit autophagy. To calculate EC50, H4-LC3 cells were seeded in 96 well-plates and cultured in the presence of compounds in different concentration for 24 h, and then fixed with polyformate and stained with 4,6-diamidino-2-phenylindole (DAPI, 3 μg/ml). Images data were collected with an ArrayScan HCS 4.0 Reader with a 20× objective (Cellomics, Pittsburgh, Pa.) for DAPI labeled nuclei and GFP-LC3, a marker for autophagy. The Spot Detector Bio-Application was used to acquire and analyze the images after optimization. Images of 1000 cells for each compound treatment were analyzed to obtain average cell number per field, fluorescence spot number, area and intensity per cell. DMSO and rapamycin were used as negative or positive control, respectively. The percentages of changes of LC3-GFP were calculated by dividing with that of DMSO treated samples. Each treatment was done in triplicate for mean and SD. The images were also analyzed using a conventional fluorescence microscope for visual inspection. The experiments were repeated three times
as §1, with “15” for “14”, “with reduced or no ability to” for “that can”, “times.” for “times”
To explore the mechanism of autophagy and identify additional small molecules that can activate it, a high-throughput image-based screen for autophagy regulators was developed. This system takes advantage of the localization of light chain 3 coupled to GFP (LC3-GFP) to autophagosomal membrane upon induction of autophagy (Zhang, L., Yu, J., Pan, H., Hu, P., Hao, Y., Cai, W., Zhu, H., Yu, A. D., Xie, X., Ma, D., et al. (2007). Small molecule regulators of autophagy identified by an image-based high-throughput screen. Proc Natl Acad Sci USA 104, 19023-19028). […] Compounds that increase cellular levels of LC3-GFP, however, are not necessarily able to increase degradative activity of autophagy. Instead, the increases of LC3-GFP may be associated with cell death or may be a result of lysosomal defect and thus associated with blockage of autophagy. […]

[1] = test system: LC3-GFP (H4-LC3-GFP cells); assay: Starvation induced autophagy in H4-LC3-GFP cells; type: cell-based; conditions: Hanks buffer 1 h; MBCQ 5 μM, 3-MA 10 mM, wortmannin 0.1 μM
From the text: FIG. 2 depicts results relating to MBCQ inhibition of autophagy induced by starvation. Quantitative measurement of LC3-GFP spot number per cell (a), spot size per cell (b) and spot intensity per cell (c) using HCS and expressed as % of control.

Vps34 complexes = assay: Levels of endogenous Beclin1, Vps34, Atg14L in H4 and 293T cells (western blot); conditions: H4 cells and 293T cells; 10 μM; 3-MA 10 mM
Procedure: Twenty-four hours after the transfection, the cells were treated with indicated compounds for 12 h. The cell lysates were analyzed by western blotting using anti-HA, anti-flag or anti-tubulin. […] The cell lysates were harvested and analyzed by western blotting using: anti-Beclin1, anti-Atg14, anti-Vps34 and anti-UVRAG. Anti-α-tubulin was used as loading controls. […] The cell lysates were harvested and analyzed by western blotting using: anti-Beclin1 and anti-LC3. Anti-α-tubulin was used as loading controls.

bax/bak DKO MEF cells = assay: Etoposide induced cell death of bax/bak DKO cells; type: cell-based, mouse; conditions: etoposide 8 μM; MBCQ 10 μM, spautin 10 μM, 3-MA 10 mM; 8 h
Procedure: C, cells were collected for western blotting using anti-LC3 antibody. α-tubulin was used as a control. D-F, Bax/bak DKO cells were treated with spautin (10 μM) or indicated concentration, in the presence of or absent etoposide (8 μM) for 8 h or indicated time. […] F, Cells were collected for western blotting using anti-LC3 antibody. α-tubulin was used as a control.
Autophagy has been proposed to contribute to cell death in a number of apoptotic deficient cell types. For example, bax/bak double deficient mouse embryonic fibroblast cells (DKO mefs) are highly resistant to apoptosis (Wei, M. C., Zong, W. X., Cheng, E. H., Lindsten, T., Panoutsakopoulou, V., Ross, A. J., Roth, K. A., MacGregor, G. R., Thompson, C. B., and Korsmeyer, S. J. (2001). Proapoptotic BAX and BAK: a requisite gateway to mitochondrial dysfunction and death. Science 292, 727-730).

PDE5 = PDE5 (Homo sapiens, UniProt O76074); assay: Determination of % inhibition of PDE5 activity; type: biochemical; conditions: for inhibition at 0.2 µM: Concentration = 0.2 μM; for inhibition at 2 µM: Concentration = 2 μM; for inhibition at 20 µM: Concentration = 20 μM

Row | Structure (SMILES) | activity on autophagy (LC3-GFP (H4-LC3 cells)) | inhibition at 0.2 µM (PDE5) | inhibition at 2 µM (PDE5) | inhibition at 20 µM (PDE5) | other results
1 | CC(C)Cn1c(=O)n(C)c(=O)c2[nH]cnc21 [IBMX] | None of the PDE5 inhibitors tested |  |  |  | 
2 | Clc1cccc(Nc2nnc(-c3ccccc3)c3ccccc23)c1 [MY-5445] | None of the PDE5 inhibitors tested |  |  |  | 
3 | Cn1cnc(N)c2ncnc1-2 [3-MA, 3-methyladenine] |  |  |  |  | starvation induced autophagy (LC3-GFP spot number, size, intensity) [1]: inhibited; levels of endogenous Beclin1, Vps34 and Atg14L (Vps34 complexes): no effect on endogenous Beclin1; cell death induced by etoposide (bax/bak DKO MEF cells): inhibits etoposide induced death
4 | CCCOc1ccccc1-c1nc2nn[nH]c2c(=O)[nH]1 [Zaprinast] |  | 38% | 88.4% | 102% | 
5 | CCCc1nn(C)c2c(=O)[nH]c(-c3cc(S(=O)(=O)N4CCN(C)CC4)ccc3OCC)nc12 [Sildenafil] | None of the PDE5 inhibitors tested | 96.5% | 98.8% | 102% | 
6 | OCCN(CCO)c1nc(N2CCCCC2)c2nc(N(CCO)CCO)nc(N3CCCCC3)c2n1 [dipyridamole] | None of the PDE5 inhibitors tested |  |  |  | 
